21 molecules from PubChem BioAssay AID256 (DTP/NCI, 2004) can be followed below.

For the assay, the system named is CD2F1 mice, L1210 leukemia ip, survival T/C. Briefly: NCI In Vivo Anticancer Drug Screen. Data for tumor model L1210 Leukemia (intraperitoneal) in CD2F1 (CDF1) mice. The note with it: endpoint: mean survival time, higher = longer survival. In a few lines: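 Ratio T/C, where T is the treated-group value and C the vehicle-dosed control value, from mice implanted with a transplantable tumor.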

Where [1] appears, read: dose: 100.0 mg/kg/injection, schedule: Q01DX001 (ip), vehicle: saline with Tween-80.
The mark [2] stands for this setting: dose: 200.0 mg/kg/injection, schedule: Q01DX001 (ip), vehicle: saline with Tween-80.
Where [3] appears, read: dose: 400.0 mg/kg/injection, schedule: Q01DX001 (ip), vehicle: saline with Tween-80.
[4] abbreviates: dose: 50.0 mg/kg/injection, schedule: Q01DX009 (ip), vehicle: saline with Tween-80.
Where [5] appears, read: dose: 100.0 mg/kg/injection, schedule: Q01DX009 (ip), vehicle: saline with Tween-80.
[6] abbreviates: dose: 200.0 mg/kg/injection, schedule: Q01DX009 (ip), vehicle: saline with Tween-80.
Where [7] appears, read: dose: 100.0 mg/kg/injection, schedule: Q04DX003 (ip), vehicle: saline with Tween-80.
Where [8] appears, read: dose: 400.0 mg/kg/injection, schedule: Q04DX003 (ip), vehicle: saline with Tween-80.
The mark [9] stands for this setting: dose: 200.0 mg/kg/injection, schedule: Q04DX003 (ip), vehicle: saline with Tween-80.
[10] abbreviates: dose: 50.0 mg/kg/injection, schedule: Q04DX003 (ip), vehicle: saline with Tween-80.
Setting [11] is: dose: 12.5 mg/kg/injection, schedule: Q01DX009 (ip), vehicle: saline sonified.
[12] abbreviates: dose: 25.0 mg/kg/injection, schedule: Q01DX009 (ip), vehicle: saline sonified.
[13] abbreviates: dose: 6.25 mg/kg/injection, schedule: Q01DX009 (ip), vehicle: saline.
Where [14] appears, read: dose: 12.5 mg/kg/injection, schedule: Q01DX009 (ip), vehicle: saline.
Where [15] appears, read: dose: 25.0 mg/kg/injection, schedule: Q01DX009 (ip), vehicle: saline.
Setting [16] is: dose: 25.0 mg/kg/injection, schedule: Q01DX009 (ip), vehicle: saline with Tween-80.
Where [17] appears, read: dose: 3.12 mg/kg/injection, schedule: Q01DX009 (ip), vehicle: saline with Tween-80.
Setting [18] is: dose: 100.0 mg/kg/injection, schedule: Q04DX002 (ip), vehicle: saline with Tween-80.
Setting [19] is: dose: 200.0 mg/kg/injection, schedule: Q04DX002 (ip), vehicle: saline with Tween-80.
Where [20] appears, read: dose: 50.0 mg/kg/injection, schedule: Q01DX009 (ip), vehicle: saline.
The mark [21] stands for this setting: dose: 400.0 mg/kg/injection, schedule: Q04DX002 (ip), vehicle: saline with Tween-80.

Several values for one entry are separate records, joined by “and”; a condition that tells them apart may be missing. Identical values can stand only once. Inconclusive results and toxic doses are left out.

In the case of `Cc1ccc(C(=O)C(F)(F)F)cc1`, the T/C is 104 % of control under setting [1], 101 % of control under setting [2] and 96 % of control under setting [3].
Take `COc1cc(OC)c(NC(=O)Oc2ccccc2F)cc1Cl`: the T/C is 92 % of control under setting [4], 100 % of control under setting [5] and 100 % of control under setting [6].
On to `Cc1cc(C)c(C)c(Br)c1`, for which the T/C is, setting by setting: (dose: 100.0 mg/kg/injection, schedule: Q01DX009 (ip), vehicle: saline sonified) 95 % of control; under setting [7], 100 % of control; under setting [8], 102 % of control.
With `CSC(=S)N(C)/N=C/c1ccccn1`, the T/C is 98 % of control under setting [5] and 96 % of control under setting [6].
Consider `Nc1cc(Cl)c(Cl)cc1Cl`, for which the T/C by setting is: under setting [4], 93 % of control; under setting [5], 106 % of control; under setting [7], 100 % of control; under setting [6], 95 % of control; under setting [9], 94 % of control; (dose: 400.0 mg/kg/injection, schedule: Q01DX009 (ip), vehicle: saline with Tween-80) 108 % of control.
For the molecule `O=C(/C=C(\C(=O)c1ccccc1)c1ccccc1)c1ccccc1`, the T/C is, setting by setting: under setting [4], 95 % of control; under setting [10], 92 % of control; under setting [5], 96 % of control; under setting [7], 87 % of control; under setting [6], 101 % of control; under setting [9], 87 % of control.
In the case of `COc1ccc(OC)c(C2N(C)CCCN2C)c1`, the T/C by setting is: (dose: 6.25 mg/kg/injection, schedule: Q01DX009 (ip), vehicle: saline sonified) 90 % of control; (dose: 6.25 mg/kg/injection, schedule: Q04DX003 (ip), vehicle: saline sonified) 100 % of control; under setting [11], 88 % of control; (dose: 12.5 mg/kg/injection, schedule: Q04DX003 (ip), vehicle: saline sonified) 101 % of control; under setting [12], 103 % of control; (dose: 25.0 mg/kg/injection, schedule: Q04DX003 (ip), vehicle: saline sonified) 100 % of control.
Turning to `C=CCCCCCCCCC(=O)NCC[N+](C)(C)C`, the T/C was 104 % of control under setting [13]; 96 % of control (dose: 6.25 mg/kg/injection, schedule: Q04DX003 (ip), vehicle: saline); 101 % of control under setting [14]; 97 % of control (dose: 12.5 mg/kg/injection, schedule: Q04DX003 (ip), vehicle: saline); 106 % of control under setting [15]; 102 % of control (dose: 25.0 mg/kg/injection, schedule: Q04DX003 (ip), vehicle: saline).
In the case of `Cc1ccc2c([N+](=O)[O-])cccc2n1`, the T/C is 93 % of control under setting [16], 96 % of control under setting [4] and 104 % of control under setting [5].
On to `COC(=O)C(F)C(Br)C(=O)OC` (stereo not drawn), for which the T/C was 108 % of control under setting [17]; 97 % of control (dose: 6.25 mg/kg/injection, schedule: Q01DX009 (ip), vehicle: saline with Tween-80); 107 % of control (dose: 12.5 mg/kg/injection, schedule: Q01DX009 (ip), vehicle: saline with Tween-80); 105 % of control under setting [16]; 108 % of control under setting [4].
`O.O=S(=O)([O-])O.O=[N+]([O-])O.[Co+3].[NH2-].[NH2-].[NH2-].[NH2-]`: the T/C was 94 % of control under setting [18] and 97 % of control under setting [19].
`CCCCCCCCC1SC1CCCCCCCC(=O)OCCN(C)C(=O)CCCCCCCC1SC1CCCCCCCC` (stereo not drawn): the T/C is, setting by setting: (dose: 100.0 mg/kg/injection, schedule: Q04DX003 (ip), vehicle: other) 100 % of control; (dose: 200.0 mg/kg/injection, schedule: Q04DX003 (ip), vehicle: other) 92 % of control; (dose: 400.0 mg/kg/injection, schedule: Q04DX003 (ip), vehicle: other) 90 % of control.
As to `NC(=S)/C(N)=N/Nc1ccc(Cl)cc1`, the T/C is, setting by setting: (dose: 0.39 mg/kg/injection, schedule: Q01DX009 (ip), vehicle: saline) 101 % of control; (dose: 0.78 mg/kg/injection, schedule: Q01DX009 (ip), vehicle: saline) 104 % of control; (dose: 1.56 mg/kg/injection, schedule: Q01DX009 (ip), vehicle: saline) 108 % of control; (dose: 3.12 mg/kg/injection, schedule: Q01DX009 (ip), vehicle: saline) 107 % of control; under setting [13], 96 % of control and 110 % of control; under setting [14], 113 % of control and 93 % of control. Also, the T/C reads like this: under setting [15], 100 % of control; under setting [20], 100 % of control.
Regarding `Cc1ccc(C#CP(C#Cc2ccc(C)cc2)C#Cc2ccc(C)cc2)cc1`, the T/C reads like this: (dose: 1.56 mg/kg/injection, schedule: Q01DX009 (ip), vehicle: saline with Tween-80) 92 % of control; under setting [17], 96 % of control; under setting [13], 96 % of control; under setting [15], 96 % of control.
As for `N#C[C@H](OC1OC(COC2OC(CO)C(O)C(O)C2O)C(O)C(O)C1O)c1ccccc1` (stereo partly drawn), the T/C by setting is: under setting [15], 98 % of control; (dose: 25.0 mg/kg/injection, schedule: Q01DX009 (ip), vehicle: water) 96 % of control; under setting [20], 97 % of control; (dose: 50.0 mg/kg/injection, schedule: Q01DX009 (ip), vehicle: water) 103 % of control; (dose: 100.0 mg/kg/injection, schedule: Q01DX009 (ip), vehicle: saline) 101 % of control; (dose: 100.0 mg/kg/injection, schedule: Q01DX009 (ip), vehicle: water) 96 % of control. Further, the T/C is, setting by setting: (dose: 200.0 mg/kg/injection, schedule: Q01DX009 (ip), vehicle: saline) 104 % of control; (dose: 200.0 mg/kg/injection, schedule: Q01DX009 (ip), vehicle: water) 96 % of control; (dose: 400.0 mg/kg/injection, schedule: Q01DX009 (ip), vehicle: saline) 98 % of control; (dose: 400.0 mg/kg/injection, schedule: Q01DX009 (ip), vehicle: water) 105 % of control; (dose: 800.0 mg/kg/injection, schedule: Q01DX009 (ip), vehicle: saline) 107 % of control; (dose: 800.0 mg/kg/injection, schedule: Q01DX009 (ip), vehicle: water) 102 % of control.
`COc1ccc(N=C(C)CC(C)=O)cc1`: the T/C under setting [18] was 98 % of control, the T/C under setting [19] was 95 % of control and the T/C under setting [21] is 95 % of control.
In the case of `COC(=O)c1ccc(OC)c(I)c1`, the T/C reads like this: under setting [18], 98 % of control; under setting [19], 123 % of control; under setting [21], 98 % of control.
With `COc1ccc2cc(OC)c(OC)cc2n1`, the T/C is 96 % of control under setting [1], 96 % of control under setting [2] and 98 % of control under setting [3].
Consider `CC(=O)c1ccc[n+](CCc2c[nH]c3ccccc23)c1`, for which the T/C reads like this: under setting [11], 103 % of control; (dose: 12.5 mg/kg/injection, schedule: Q04DX003 (ip), vehicle: saline with Tween-80) 98 % of control; under setting [12], 100 % of control; (dose: 25.0 mg/kg/injection, schedule: Q04DX003 (ip), vehicle: saline with Tween-80) 104 % of control; (dose: 50.0 mg/kg/injection, schedule: Q01DX009 (ip), vehicle: saline sonified) 103 % of control; under setting [10], 103 % of control.
Turning to `Cc1ccc([NH-])c([NH-])c1.[Cl][Pt+2][Cl]`, the T/C by setting is: (dose: 2.5 mg/kg/injection, schedule: Q01DX009 (ip), vehicle: saline with Tween-80) 151 % of control; (dose: 5.0 mg/kg/injection, schedule: Q01DX009 (ip), vehicle: saline with Tween-80) 180 % of control; (dose: 20.0 mg/kg/injection, schedule: Q01DX009 (ip), vehicle: saline with Tween-80) 94 % of control.
Turning to `Nc1ccc(CCCCNC(=O)c2ccccc2)cc1`, the T/C is 93 % of control under setting [7], 96 % of control under setting [9] and 90 % of control under setting [8].
